Results: US20100120850A1, “Quinoline Derivatives, Pharmaceutical Compositions Comprising Them, and Their Use in Treating Central Nervous System and Peripheral Diseases” (priority 2007, published 2010)

Target: T1, NK-3 receptor (Homo sapiens, UniProt P29371)
T1 construct: expressed in transfected cells
T1 sequence (P29371 1-465): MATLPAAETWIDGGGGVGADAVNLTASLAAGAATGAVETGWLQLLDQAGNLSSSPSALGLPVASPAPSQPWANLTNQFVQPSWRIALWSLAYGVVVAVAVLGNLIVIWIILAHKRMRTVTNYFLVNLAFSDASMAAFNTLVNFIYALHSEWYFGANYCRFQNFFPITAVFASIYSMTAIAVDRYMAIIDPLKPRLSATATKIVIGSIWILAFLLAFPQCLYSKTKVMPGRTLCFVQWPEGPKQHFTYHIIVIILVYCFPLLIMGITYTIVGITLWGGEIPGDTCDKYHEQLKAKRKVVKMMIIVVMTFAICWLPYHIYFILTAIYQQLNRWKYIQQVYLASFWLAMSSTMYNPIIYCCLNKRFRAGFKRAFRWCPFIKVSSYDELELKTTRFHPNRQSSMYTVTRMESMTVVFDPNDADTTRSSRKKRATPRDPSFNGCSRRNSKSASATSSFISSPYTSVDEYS
Experiment: Assay for NK-3 functional activity (senktide-induced calcium mobilization, FLIPR)
Assay type: cell-based
Settings: compared with the other diastereomer (sulfur center) separated by chiral SFC
Text: A human NK-3 receptor gene was cloned using methods similar to those described for other human NK receptors (Aharony et al., Mol. Pharmacol. 45:9-19, 1994; Caccese et al., Neuropeptides 33, 239-243, 1999). The DNA sequence of the cloned NK-3 receptor differed from the published sequence (Buell et al., FEBS Letts. 299, 90-95, 1992; Huang et al., Biochem. Biophys. Res. Commun 184,966-972, 1992) having a silent single T>C base change at nucleotide 1320 of the coding sequence. Since the change is silent, the cloned gene provides a primary amino acid sequence for the encoded NK-3 receptor protein identical to the published sequence. […]
Generally, NK-3 functional activity may be assessed by using calcium mobilization assays in stable NK-3r-expressing cell lines. […] Agonists may be added to the cells and fluorescence responses continuously recorded for up to 5 min. […] The action of agonists may be assessed by observing their intrinsic activity in such a system.
NK-3 receptor expressing CHO cells were maintained in growth media (Ham's F12 medium, 10% FBS, 2 mM L-glutamine, and […] Hygromycin B). […] To quantify NK-3 receptor-induced calcium mobilization, cells were first washed with assay buffer consisting of Hanks' Balanced Salt Solution, 15 mM HEPES, and 2.5 mM probenecid, pH 7.4. […] The resulting data was analyzed using XLfit software (IDBS manufacturer) to determine EC50 and IC50 values.

| SMILES | biological activity when tested in the assay for NK-3 functional activity |
| --- | --- |
| CC[C@H](NC(=O)c1c([S+](C)[O-])c(-c2ccccc2)nc2ccccc12)c1ccccc1 (single isomer, unassigned) [Example 2 first eluting compound] | substantially greater biological activity |
| C[S+]([O-])c1c(-c2ccccc2)nc2ccccc2c1C(=O)N[C@H](c1ccccc1)C1CC1 (single isomer, unassigned) [Example 8 second eluting compound] | substantially greater biological activity |
